Laboratory results as given in patent US20110081405A1, “Zeolite Formulation And Use Thereof For The Prevention And Therapy Of Diseases Caused By Infections With Herpes Simplex Virus Type 1 And Type 2” (priority 2008, published 2011).

Columns and labels:
HSV-1 (strain F) = test: Viral plaque inhibition assay, zeolite coincubated with HSV-1, supernatants added to cells; assay type: cell-based; settings: keratinocytes, supernatants of HSV-1 coincubated 18 hours with 5 μg/ml zeolite or 50 μg/ml Acyclovir, Mordenite 0.1-0.5 μm, P, X, A 0.5-5 μm
Procedure: (§1) Testing of Antiviral Activities of Synthetic Zeolites by the Viral Plaque Inhibition Assay—the Antiviral Activity of Zeolites when Coincubated with HSV In Vitro
(§2) Epidermal cell cultures of fibroblasts and keratinocytes were grown in vitro from healthy skin samples, remnants from operations. Fibroblast cultures were grown in Dulbecco modified Eagle's medium (DMEM) containing Glutamax I (L-alanin-L-glutamine) and sodium pyruvate, […] and pyridoxine, supplemented with 10% fetal calf serum (FCS), 0.25 μg gentamycin and 100 UI/L penicillin. Keratinocytes are grown in a mixture of DMEM, Hams F12 in the 3:1 ratio with the addition of Glutamax I, complemented with 9% of FCS, epidermal growth factor (EGF), insulin, hydrocortisone, triiodothyronine, adenine, and antibiotics. The antiviral effect was determined on primary cells (primary fibroblasts and keratinocytes) grown in vitro from the explants of healthy skin, and also on cell lines: fibroblasts cell line MRC-5, HEp-2 cell line, and Vero cell line.
(§3) MRC-5, Vero, HEp-2, and keratinocyte cell lines were all obtained from the American Type Culture Collection-ATCC, and grown in T-75 flasks at 37° C. in a humidified incubator with 5% CO2.
(§4) HSV-1 (strain F) and HSV-2 (strain G), both obtained from the ATCC, were propagated in HEp-2 cells and their titres checked in same cells (H. Kirchner, C. Kleinicke, H. Northoff. J. Gen. Virol. 1977, 37, 647.). 0.1, 0.5, 1, 2, 4, or 5 Multiplicity of infection (MOI) of HSV-1 or HSV-2 was used to infect Vero cells, keratinocyte cell lines and MRC-5 cell lines, as described below.
(§5) Synthetic zeolites: A, Mordenite, P and X were tested in vitro for an anti HSV activity. Mordenite was used in two characteristic size of particles (0.1-0.5 μm and 0.5-5 μm) and other zeolites in 0.5-5 μm particle size. Zeolites were used in the concentrations of 5, 50, 500 ng/ml; 1, 5, 50, 100, 500 μg/ml; 1, 2, 10, 50 mg/ml in growth medium.
(§6) The ability of HSV preincubated with zeolite to infect cells permissive to infection (permissive cells) and cell lines was tested in in vitro experiments.
(§7) Viral stock containing the HSV-1 or HSV-2 (in MOI described above), diluted in a minimal volume of growth medium containing 5% FCS was used for the coincubation with zeolite for 3-20 hours at 4° C. The pH was maintained at all times to be at around 7.00. The sterile cuvettes containing zeolite+HSV were then centrifuged at 4.000 rpm/30 minutes to remove any particulate content in supernatants. Those supernatants (in 200 μl volume) were then added to the MRC-5, HEp-2, or Vero cell lines (grown in 24 well plate to 85% confluency) for 1 hour at 37° C. Parallel cultures contained cells infected with 200 μl of HSV-1 or HSV-2 under the same conditions as for the addition of supernatants (above). After one hour incubation, the growth medium containing 9% FCS was added, and cells cultivated for another 3 days (to examine for any CPE by light microscopy). Growth medium was then aspirated from the wells, and 100 μl of 0.2% crystal violet dye, diluted in phosphate buffered saline (PBS), was added to each well. After half-hour exposure to the dye, the wells were washed twice with double distilled water, air-dried, and the HSV plaques in cell cultures were counted using Olympus light microscope (magnification of 40×). The CPE produced by the infection of permissive cells was characterised by morphological changes in host cells e.g. cell rounding, swelling, detachment from the surface, formation of syncicia, plaques, caused by the increased number of newly formed viral particles. Plaques formed by HSV destroying cells were easily distinguished from unaffected cell layers.

HSV-2 (strain G) = test: Viral plaque inhibition assay, zeolite coincubated with HSV-2, supernatants added to cells; assay type: cell-based; settings: keratinocytes, supernatants of HSV-2 coincubated 18 hours with 5 μg/ml zeolite or 50 μg/ml Acyclovir, Mordenite 0.1-0.5 μm, P, X, A 0.5-5 μm
Procedure: as §1, §2, §3, §4, §5, §6, §7

[1] = background statement; cited from earlier work

SMILES	decrease in number of HSV-1 plaques (HSV-1 (strain F); 0.1 MOI)	decrease in number of HSV-1 plaques (HSV-1 (strain F); 0.5 MOI)	decrease in number of HSV-1 plaques (HSV-1 (strain F); 1 MOI)	decrease in number of HSV-1 plaques (HSV-1 (strain F); 2 MOI)	decrease in number of HSV-1 plaques (HSV-1 (strain F); 4 MOI)	decrease in number of HSV-1 plaques (HSV-1 (strain F); 5 MOI)	decrease in percentage of number of HSV-2 plaques (HSV-2 (strain G); 0.1 MOI)	decrease in percentage of number of HSV-2 plaques (HSV-2 (strain G); 0.5 MOI)	decrease in percentage of number of HSV-2 plaques (HSV-2 (strain G); 1 MOI)	decrease in percentage of number of HSV-2 plaques (HSV-2 (strain G); 2 MOI)	decrease in percentage of number of HSV-2 plaques (HSV-2 (strain G); 4 MOI)	decrease in percentage of number of HSV-2 plaques (HSV-2 (strain G); 5 MOI)	biavalibility of the drug [1]
Nc1nc2c(ncn2COCCO)c(=O)[nH]1 [Acyclovir, 9-[(2-hydroxyetoxy)methyl]guanine]	71	71	61	58	43	36	73%	72%	70%	65%	48%	42%	
CC(=O)OCC(CCn1cnc2cnc(N)nc21)COC(C)=O [famcyclovir]													77%
CC(C)[C@H](N)C(=O)OCCOCn1cnc2c(=O)[nH]c(N)nc21 [valacyclovir]													55%
